Results from patent US20230085307A1, “PYRIDAZINONE COMPOUND AND HERBICIDE” (NISSAN CHEMICAL CORPORATION, priority 2019, published 2023).

Tests used:
Japanese bulrush = assay: Test Example 1: herbicidal activity, application before weed generation under submerged conditions (Table 16, symbol B); assay type: in vivo, Japanese bulrush (Schoenoplectus juncoides); details: 320 g/ha applied herbicide
Method in brief: (§1)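 Submerged Wagner pots (alluvial soil, 4 cm water) sown with weed seeds and planted with 2.5-leaf rice seedlings; emulsifiable concentrate diluted in water applied to water surface on sowing day. Held in greenhouse at 25-30 °C; injury scored 0-5 by herbicidal rate after three weeks.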

oval-leafed pondweed = assay: Test Example 1: herbicidal activity, application before weed generation under submerged conditions (Table 16, symbol C); assay type: in vivo, oval-leafed pondweed (Monochoria vaginalis); details: 320 g/ha applied herbicide
Method in brief: as §1

late watergrass = assay: Test Example 2: herbicidal activity, application during weed generation under submerged conditions (Table 17, symbol A); assay type: in vivo, late watergrass (Echinochloa oryzicola); details: AAH 320 g/ha; application during weed generation, submerged conditions
Method in brief: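 Alluvial soil in Wagner pots was flooded to 4 cm depth and sown with the three weeds together; pots were kept in a greenhouse at 25° C. to 30° C. At the one to two leaf stage, an emulsion formulation diluted in water to a set rate went onto the water surface; scored three weeks later.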

barnyard grass [1] = assay: Test Example 3: herbicidal effect by foliage application, Wagner pot (Table 18, symbol H); assay type: in vivo, barnyard grass (Echinochloa crus-galli); details: 320 g/ha
Method in brief: (§2)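 Plants were sown in alluvial soil held under 0.1–0.5 cm standing water and grown 14 days in a greenhouse at 25–30 °C. An emulsifiable formulation, water-diluted to the set dose, was then sprayed onto the foliage, and effects were scored three weeks later using previously defined criteria.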

Chinese sprangletop = assay: Test Example 3: herbicidal effect by foliage application, Wagner pot (Table 18, symbol D); assay type: in vivo, chinese sprangletop (Leptochloa chinensis); details: 320 g/ha
Method in brief: as §2

rice flat sedge = assay: Test Example 3: herbicidal effect by foliage application, Wagner pot (Table 18, symbol E); assay type: in vivo, rice flat sedge (Cyperus iria); details: 320 g/ha
Method in brief: as §2

barnyard grass [2] = assay: Test Example 4: herbicidal effect by soil treatment (Table 19, symbol H); assay type: in vivo, barnyard grass (Echinochloa crus-galli); details: 320 g/ha
Method in brief: (§3)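 In this soil treatment, the formulated compound reached the seeds only through the soil: seeds were buried about 1.5 cm deep in sterilized diluvial soil, then the diluted emulsion was sprayed over the surface. After three weeks at 25° C. to 30° C. in a greenhouse, effects were graded on criteria from an earlier test.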

wild oat [3] = assay: Test Example 4: herbicidal effect by soil treatment (Table 19, symbol I); assay type: in vivo, wild oat (Avena fatua); details: 320 g/ha
Method in brief: as §3

windgrass [4] = assay: Test Example 4: herbicidal effect by soil treatment (Table 19, symbol L); assay type: in vivo, windgrass (Apera spica-venti); details: 320 g/ha
Method in brief: as §3

velvetleaf [5] = assay: Test Example 4: herbicidal effect by soil treatment (Table 19, symbol M); assay type: in vivo, velvetleaf (Abutilon theophrasti); details: 320 g/ha
Method in brief: as §3

lambsquarters = assay: Test Example 4: herbicidal effect by soil treatment (Table 19, symbol O); assay type: in vivo, lambsquarters (Chenopodium album); details: 320 g/ha
Method in brief: as §3

green foxtail = assay: Test Example 5: herbicidal effect by foliage application, plastic box (Table 20, symbol G); assay type: in vivo, green foxtail (Setaria viridis); details: foliage application, 320 g/ha, evaluated three weeks after application
Method in brief: (§4)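 Plants were sown into sterilized diluvial soil under about 1.5 cm cover and kept in a greenhouse at 25° C. to 30° C. Fourteen days on, foliage received an even spray of the diluted emulsion. Herbicidal or crop effect was judged three weeks afterwards.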

wild oat [6] = assay: Test Example 5: herbicidal effect by foliage application, plastic box (Table 20, symbol I); assay type: in vivo, wild oat (Avena fatua); details: foliage application, 320 g/ha, evaluated three weeks after application
Method in brief: as §4

blackgrass = assay: Test Example 5: herbicidal effect by foliage application, plastic box (Table 20, symbol J); assay type: in vivo, blackgrass (Alopecurus myosuroides); details: foliage application, 320 g/ha, evaluated three weeks after application
Method in brief: as §4

windgrass [7] = assay: Test Example 5: herbicidal effect by foliage application, plastic box (Table 20, symbol L); assay type: in vivo, windgrass (Apera spica-venti); details: foliage application, 320 g/ha, evaluated three weeks after application
Method in brief: as §4

velvetleaf [8] = assay: Test Example 5: herbicidal effect by foliage application, plastic box (Table 20, symbol M); assay type: in vivo, velvetleaf (Abutilon theophrasti); details: foliage application, 320 g/ha, evaluated three weeks after application
Method in brief: as §4

chickweed = assay: Test Example 5: herbicidal effect by foliage application, plastic box (Table 20, symbol P); assay type: in vivo, common chickweed (Stellaria media); details: foliage application, 320 g/ha, evaluated three weeks after application
Method in brief: as §4

| Structure (SMILES) | Herbicidal effect on B: Japanese bulrush (grade 0-5) (Japanese bulrush) | Herbicidal effect on C: oval-leafed pondweed (grade 0-5) (oval-leafed pondweed) | herbicidal effect rating, A: late watergrass (late watergrass) | herbicidal effect on H (barnyard grass), rating 0-5 (barnyard grass [1]) | herbicidal effect on D (Chinese sprangletop), rating 0-5 (Chinese sprangletop) | herbicidal effect on E (rice flat sedge), rating 0-5 (rice flat sedge) | herbicidal effect rating, H: barnyard grass (barnyard grass [2]) | herbicidal effect rating, I: wild oat (wild oat [3]) | herbicidal effect rating, L: windgrass (windgrass [4]) | herbicidal effect rating, M: velvetleaf (velvetleaf [5]) | herbicidal effect rating, O: lambsquarters (lambsquarters) | herbicidal effect on G: green foxtail (green foxtail) | herbicidal effect on I: wild oat (wild oat [6]) | herbicidal effect on J: blackgrass (blackgrass) | herbicidal effect on L: windgrass (windgrass [7]) | herbicidal effect on M: velvetleaf (velvetleaf [8]) | herbicidal effect on P: chickweed (chickweed) |
| --- | --- | --- | --- | --- | --- | --- | --- | --- | --- | --- | --- | --- | --- | --- | --- | --- | --- |
| Cc1nn(C)c(=O)c(-c2c(-c3ccc(OCC(F)(F)F)cc3)sc3ccc(F)cc23)c1O [2-049] | 3 (Herbicidal rate of 40% or more and less than 70%) | 3 (Herbicidal rate of 40% or more and less than 70%) | 0 (Herbicidal rate of 5% or less (almost no effect)) | 5 (Herbicidal rate of 90% or more (almost completely withered)) | 5 (Herbicidal rate of 90% or more (almost completely withered)) | 5 (Herbicidal rate of 90% or more (almost completely withered)) | 5 (Herbicidal rate of 90% or more (almost completely withered)) | 0 (Herbicidal rate of 5% or less (almost no effect)) | 5 (Herbicidal rate of 90% or more (almost completely withered)) | 5 (Herbicidal rate of 90% or more (almost completely withered)) | 5 (Herbicidal rate of 90% or more (almost completely withered)) | 5 (Herbicidal rate of 90% or more (almost completely withered)) | 5 (Herbicidal rate of 90% or more (almost completely withered)) | 5 (Herbicidal rate of 90% or more (almost completely withered)) | 5 (Herbicidal rate of 90% or more (almost completely withered)) | 5 (Herbicidal rate of 90% or more (almost completely withered)) | 5 (Herbicidal rate of 90% or more (almost completely withered)) |
| C=CCOc1ccc(-c2sc3ccc(F)cc3c2-c2c(O)c(C)nn(C)c2=O)cc1 [2-051] | 4 (Herbicidal rate of 70% or more and less than 90%) | 4 (Herbicidal rate of 70% or more and less than 90%) | 0 (Herbicidal rate of 5% or less (almost no effect)) | 5 (Herbicidal rate of 90% or more (almost completely withered)) | 5 (Herbicidal rate of 90% or more (almost completely withered)) | 5 (Herbicidal rate of 90% or more (almost completely withered)) | 4 (Herbicidal rate of 70% or more and less than 90%) | 0 (Herbicidal rate of 5% or less (almost no effect)) | 3 (Herbicidal rate of 40% or more and less than 70%) | 3 (Herbicidal rate of 40% or more and less than 70%) | 5 (Herbicidal rate of 90% or more (almost completely withered)) | 5 (Herbicidal rate of 90% or more (almost completely withered)) | 4 (Herbicidal rate of 70% or more and less than 90%) | 5 (Herbicidal rate of 90% or more (almost completely withered)) | 5 (Herbicidal rate of 90% or more (almost completely withered)) | 4 (Herbicidal rate of 70% or more and less than 90%) | 5 (Herbicidal rate of 90% or more (almost completely withered)) |
